Results from patent publication US7678808B2, “5 HT receptor mediated neurogenesis” (BrainCells, Inc., priority 2006, dated 2010).
“Also recorded” adds a separate entry of the source.

Tests used:
[1] = test system: human neural stem cells (hNSCs); assay: Neuronal differentiation of human neural stem cells (TUJ-1 staining); format: cell-based; conditions: agent alone; hNSC; data as % of neuronal positive control, basal media subtracted
Text: Mitogen-free test media with a positive control was used for neuronal differentiation, and basal media without growth factors served as a negative control.
Mitogen-free test media with a positive control for neuronal differentiation was used, and basal media without growth factors served as a negative control.
(§1) Human neural stem cells (hNSCs) were isolated and grown in monolayer culture, plated, treated with varying concentrations of buspirone in the presence or absence of the melatonin agonist melatonin, and stained with TUJ-1 antibody for the detection of neuronal differentiation or GFAP antibody for the detection of astrocyte differentiation, as described above. Mitogen-free test media with a positive control for neuronal differentiation was used along with basal media without growth factors as a negative control.
(§2) Human neural stem cells (hNSCs) were isolated and grown in monolayer culture, plated, treated with varying concentrations of a 5-HT3 antagonist and stained with TUJ-1 antibody, as described above. Mitogen-free test media with a positive control for neuronal differentiation was used along with basal media without growth factors as a negative control.
as §2, with “5-HT4 agonist” for “5-HT3 antagonist”
The presence of synergy was determined by use of a combination index (CI). […] The CI is a quantitative measure of the nature of drug interactions, comparing the EC50's of two compounds, when each is assayed alone, to the EC50 of each compound when assayed in combination. The combination index (CI) is equal to the following formula: […]
where C1 and C2 are the concentrations of a first and a second compound, respectively, resulting in 50% activity in neuronal differentiation when assayed in combination; and IC1 and IC2 are the concentrations of each compound resulting in 50% activity when assayed independently.

[2] = test system: human neural stem cells (hNSCs); assay: Astrocyte differentiation of hNSCs (GFAP staining); format: cell-based
Procedure: Experiments were carried out as described in Example 1, except the positive control for astrocyte differentiation contained mitogen-free test media with a positive control, and cells were stained with GFAP antibody.
Experiments were carried out as described in Example 2, except the positive control for astrocyte differentiation contained mitogen-free test media with a different positive control.
as §1

Male F344 rats [3] = assay: Novel Object Recognition (NOR) cognition assay; format: in vivo, rat; conditions: buspirone 0.5 and 5.0 mg/kg i.p., 1x per day for 28 days
Text: The apparatus consisted of an open field (45×45×50 cm high) made of polycarbonate. Triplicate copies were used of the objects to be discriminated. Care was taken to ensure that the pair of objects tested were made from the same material so that they could not be distinguished readily by olfactory cues although they had very different appearances.
Each test session consisted of two phases. In the initial familiarization phase, two identical objects (A1 and A2) were placed in the far corners of the box arena. A rat was then placed in the middle of the arena and allowed 15 minutes to explore both objects. Exploration of an object was defined as directing the nose to the object at a distance of less than 2 cm and/or touching it with the nose. After a delay of 48-hours the rat was re-introduced to the arena (“test phase”). The box now contained a third identical copy of the familiar object (A3) and a new object (B). These were placed in the same locations as the sample stimuli, whereby the position (left or right) of the novel object in the test phase was balanced between rats. For half the rats, object A was the sample and object B was the novel alternative. The test phase was 15 minutes in duration, with the first 30 seconds of object interaction used to determine preference scores. Any animal with less than 15 seconds of object exploration were excluded from analysis.

Male F344 rats [4] = assay: Novelty suppressed feeding (NSF) depression assay; format: in vivo, rat; conditions: 1x per day for 21 days
Procedure: Twenty-four hours prior to behavioral testing, all food is removed from the home cage. At the time of testing a single pellet is placed in the center of a novel arena. Animals are placed in the corner of the arena and latency to eat the pellet is recorded. […] Animals receive compound daily for 21 days and testing is performed on day 21. A decreased latency to eat the food pellet is indicative of both neurogenesis and antidepressant activity.
Twenty-four hours prior to behavioral testing, all food is removed from the home cage. At the time of testing a single pellet is placed in the center of a novel arena. Animals are placed in the corner of the arena and the latency (in time) to eat the pellet is recorded. […] Animals receive compound daily for 21 days and testing is performed on day 21. A decreased latency to eat the food pellet is indicative of both neurogenesis and antidepressant activity.

[5] = test system: granule cell layer of the dentate gyrus; assay: In vivo neurogenesis (BrdU positive cell counts); set-up: species or system rat; conditions: 0.5 mg/kg buspirone, 3.0 mg/kg melatonin or both, i.p., 1x per day for 28 days
Procedure: BrdU was administered once daily between days 9 and 14 (100 mg/kg/day, i.p., n=12 per dose group). […] Data are presented as percent change in BrdU positive cells per cubic mm dentate gyrus.

[6] = Rat body weight during chronic dosing; conditions: buspirone 0.5 and 5.0 mg/kg i.p., 1x per day for 28 days

Compound `O=C1CC2(CCCC2)CC(=O)N1CCCCN1CCN(c2ncccn2)CC1` [buspirone] has an EC50 [1] of 9.4 µM, an EC50 ([2]; Homo sapiens, Neural stem cell, agent alone, hNSC) of 5.7 µM and a maximum astrocyte differentiation ([2]; percent of positive control, agent alone or in combination) of 60%. For the same compound, the “preference for the novel object (visits, time spent)” value (Male F344 rats [3]) was “did not increase preference for the novel object; also recorded: did not demonstrate a significant effect on cognition”, the “latency to eat the food pellet (percent baseline)” value (Male F344 rats [4]; 0.5 mg/kg buspirone, 3.0 mg/kg melatonin or both, i.p.) was “did not significantly reduce the latency to eat the food pellet” and the “latency to eat the food pellet” value (Male F344 rats [4]; buspirone 0.5 and 5.0 mg/kg i.p.) was “did not significantly reduce the latency to eat the food pellet; also recorded: did not demonstrate a significant effect on novelty suppressed feeding”. The “BrdU positive cells per cubic mm dentate gyrus (percent change)” value [5] was “did not significantly change the number of BrdU positive cells” and the mean body weight [6] was “dose-dependent decrease in mean body weight”.
